The values that follow are results of earlier work, collected in patent US20250082708A1, “HERBAL COMPOSITION FOR USE IN THE TREATMENT OR PREVENTION OF POSTPARTUM DEPRESSION” (CRISTALFARMA S.R.L., priority 2022, published 2025).

In the data set the test system is women with postpartum depression. As to conditions: 8 weeks treatment; Amini et al.

vitamin D: the “reduction of EPDS questionnaire score with respect to baseline, versus placebo control group” value is listed as “greater reduction”.
